Earlier results, collected in US20110070315A1 (priority 2009, published 2011).

Tested on: hair loss

For `Cl.NCCCC[C@H](N)C(=O)O` [L—Lysine HCl, L-Lysine HCl], the decreases hair loss is given as “one half”.
